Data on 25 molecules can be found in US6262119A, “Methods of treating immunopathologies using polyunsaturated fatty acids” (priority 1996, dated 2001).

Data set [1] relates to peripheral blood mononuclear cell proliferation. Briefly: Mononuclear cell proliferation assay (thymidine incorporation). The format is cell-based, human. The settings on record: for % INHIBITION OF INDUCED PROLIFERATION AT 20 μM PUFA: mitogen-induced PBMC proliferation, one experiment in duplicate, representative of 4; for inhibition at 20 µM: Homo sapiens, read-out: % INHIBITION OF PROLIFERATION
The method, then:
Mononuclear Cell Proliferation Assays
Mononuclear cells were separated from peripheral blood of normal human donors as described by Ferrante and Thong (1980, J. Immunol. Methods 36:109)). The mononuclear cells were resuspended in RPMI-1640 containing 20% human AB serum and placed into 96 well microtrays (50 μl per well, cell density 4×10^6 cells/ml). Fatty acid ([…]) was then added in 50ul and pre-incubated with the cells for 30 min at 37° C. in 5% CO2. Mitogen (PHA, ConA, PWM, Staph. aureus) was then added in 100 μl and the cells incubated for 66 hours at 37° C. in 5% CO2 before the addition of tritiated thymidine (1 μCi/well). After a total of 72 h in culture the cells were harvested and proliferation (thymidine incorporation) and supernatant's assayed for the presence of cytokines.
For orientation: Dividing cells build labelled thymidine or BrdU into new DNA.

The next data set has as its system DTH induced by SRBC. Description: Delayed type hypersensitivity against sheep red blood cells. The format is in vivo, Female balb/c mice. The method, then:
Delayed Type Hypersensitivity Against Sheep Red Blood Cells. Female balb/c mice were administered a priming dose of 100 μl of a 10% haematocrit of sheep red blood cells (SRBC) subcutaneously. Six days later mice were administered 25 μl of a 10% haematocrit of SRBC intradermally into the right hind footpad at time T-0 hrs. The subsequent anti-inflammatory response was evaluated by measuring the thickness of both hind footpads. Standard anti-inflammatory compounds, vehicle and test substances were administered intraperitonieally one hour prior to the SRBC challenge. PUFA compounds were administered in peanut oil.

The subject of a further data set is TNFα. Description: PHA-induced TNFα production (ELISA of mononuclear cell supernatants). The format is cell-based. The settings on record: Homo sapiens. The method, then:
(§1) Fatty acid (66pmn) was then added in 50ul and pre-incubated with the cells for 30 min at 37° C. in 5% CO2. Mitogen (PHA, ConA, PWM, Staph. aureus) was then added in 100 μl and the cells incubated for 66 hours at 37° C. in 5% CO2 before the addition of tritiated thymidine (1 μCi/well). After a total of 72 h in culture the cells were harvested and proliferation (thymidine incorporation) and supernatant's assayed for the presence of cytokines.
(§2) Cytokine levels in culture supernatants were determined by specific ELISA using anti-cytokine antibodies. The following cytokine levels were determined TNFα, TNFβ, interferon-γ, IL-1β, IL-2.
On the technique in general: ELISA stands for enzyme-linked immunosorbent assay.

The test system of a further data set is psoriasis. The note with it: drugs which block the cyclo-oxygenase pathway; cited from earlier work.
Another data set has as its system interferon γ. Briefly: PHA-stimulated interferon γ production (ELISA of mononuclear cell supernatants). The format is cell-based. The settings on record: Homo sapiens, amino acid conjugated PUFA at 20 μM (Table 6), read-out: % inhibition of IFNγ production. The method, then: as §1, §2
[2] abbreviates: PHA-induced TNFα, PUFA at 20 μM (Table 4), read-out: % INHIBITION OF CYTOKINE PRODUCTION (TNFα).
Setting [3] is: PHA-stimulated, amino acid conjugated PUFA at 20 μM (Table 6), read-out: % inhibition of TNFα production.

Structures are written as SMILES. Read-outs that look alike come from different tables or passages of the source.

Regarding `CCCCCC(O)/C=C/C=C\C/C=C\CCCCCOCC(=O)O` (stereo not drawn) [16-OH-β-oxa 21:3 (n-6), Z, Z, E-(13-Hydroxy-6,9,1-octadecatienyloxy) acetic acid], the “% INHIBITION OF INDUCED PROLIFERATION AT 20 μM PUFA” value in data set [1] came to 50%. In addition, the “% paw volume relative to control” value with DTH induced by SRBC (10 mg/kg, 3 hours post challenge) is 95.03%; in the data set on DTH induced by SRBC (10 mg/kg, 6 hours post challenge), 81.63%; in the data set with DTH induced by SRBC (10 mg/kg, 24 hours post challenge), 86.91%; in the data set with DTH induced by SRBC (50 mg/kg, 3 hours post challenge) it was 65.01%; in the data set with DTH induced by SRBC (50 mg/kg, 6 hours post challenge), 48.95%; in the data set with DTH induced by SRBC (50 mg/kg, 24 hours post challenge) it was 51.02%. Moreover, the “% paw volume relative to control” value worked out at 55.86% in the data set on DTH induced by SRBC (100 mg/kg, 3 hours post challenge); 40.94% with DTH induced by SRBC (100 mg/kg, 6 hours post challenge); 31.97% in the data set with DTH induced by SRBC (100 mg/kg, 24 hours post challenge). Moreover, the inhibition at 20 µM in the data set on TNFα (setting [2]) turned out to be 71%.
Regarding `COc1ccc2c(c1)c(CC(=O)O)c(C)n2C(=O)c1ccc(Cl)cc1` [Indomethacin, reference compound], the “% paw volume relative to control” value in the data set on DTH induced by SRBC (30 mg/kg, 3 hours post challenge) is reported as 89.59%; in the data set with DTH induced by SRBC (30 mg/kg, 6 hours post challenge) it was 81.40%; in the data set on DTH induced by SRBC (30 mg/kg, 24 hours post challenge), 49.57%. Also, the exacerbations of psoriasis result with psoriasis is recorded as “induce exacerbations of psoriasis”.
Take `C[C@]12C=CC(=O)C=C1CC[C@@H]1[C@@H]2[C@@H](O)C[C@@]2(C)[C@H]1CC[C@]2(O)C(=O)CO` [Prednisolone, reference compound]: the “% paw volume relative to control” value with DTH induced by SRBC (20 mg/kg, 3 hours post challenge) is listed as 58.35%; with DTH induced by SRBC (20 mg/kg, 6 hours post challenge), 60.12%; in the data set on DTH induced by SRBC (20 mg/kg, 24 hours post challenge) it was 100%.
With `CCCCC/C=C\C/C=C\C/C=C\C/C=C\CCCC(=O)N[C@@H](CC(=O)O)C(=O)O` [arachidonic acid-aspartic acid], the inhibition at 20 µM was 38.3% in the data set on TNFα (setting [3]) and 68.4% in the data set on interferon γ.
Take `CCCCC/C=C\C/C=C\C/C=C\C/C=C\CCCC(=O)NCC(=O)O` [arachidonic acid-glycine]: the inhibition at 20 µM in data set [1] was determined as 8%; in the data set on TNFα (setting [3]), 26.6%; in the data set on interferon γ, 35.9%.
As for `CC/C=C\C/C=C\C/C=C\C/C=C\C/C=C\C/C=C\CCC(=O)N[C@@H](CC(=O)O)C(=O)O` [docosahexanoic acid-aspartic acid], the inhibition at 20 µM in the data set with TNFα (setting [3]) turned out to be 17.4%; with interferon γ, 8.3%.
Take `CC/C=C\C/C=C\C/C=C\C/C=C\C/C=C\C/C=C\CCC(=O)NCC(=O)O` [docosahexanoic acid-glycine]: the inhibition at 20 µM was determined as 16.2% in the data set on TNFα (setting [3]) and 44% in the data set with interferon γ.
On to `CC/C=C\C/C=C\C/C=C\C/C=C\C/C=C\CCCC(=O)N[C@@H](CC(=O)O)C(=O)O` [eicosapentanoic acid-aspartic acid], for which the figures for the inhibition at 20 µM in the data set with TNFα (setting [3]) and in the data set on interferon γ were 17.1% and 66.1%, respectively.
In the case of `CC/C=C\C/C=C\C/C=C\C/C=C\C/C=C\CCCC(=O)NCC(=O)O` [eicosapentanoic acid-glycine], the results for the inhibition at 20 µM with TNFα (setting [3]) and with interferon γ were 11% and 68.2%, respectively.
`Cc1ccc(Cl)c(Nc2ccccc2C(=O)O)c1Cl` [meclotenamate]: the exacerbations of psoriasis entry in the data set on psoriasis is “induce exacerbations of psoriasis”.
As for `CCCCC1C(=O)N(c2ccccc2)N(c2ccccc2)C1=O` [phenylbutazone], in the data set on psoriasis, the exacerbations of psoriasis result was “induce exacerbations of psoriasis”.
Regarding `CC/C=C\C/C=C\C/C=C\CCCCCCCC(=O)N[C@@H](CC(=O)O)C(=O)O` [α-linolenic acid-aspartic acid], the inhibition at 20 µM in data set [1] (induced by PHA, PUFA at 20 μM) stood at 7.3%; with TNFα (setting [3]), 0%; in the data set with interferon γ, 0%.
Consider `CC/C=C\C/C=C\C/C=C\CCCCCCCC(=O)NCC(=O)O` [α-linolenic acid-glycine], for which the inhibition at 20 µM in data set [1] (induced by PHA, PUFA at 20 μM) was 15.6%; with TNFα (setting [3]) it was 29.3%; with interferon γ, 14.5%.
Regarding `CC/C=C\C/C=C\C/C=C\CCCCCCCCOCC(=O)O` [β-oxa 21:3 (n-3), Z, Z, Z (9, 12, 15-Octadecatrienyloxy) acetic acid], the inhibition at 20 µM in the data set with TNFα (setting [2]) was 39%.
Consider `CCCCC/C=C\C/C=C\C/C=C\CCCCCOCC(=O)O` [β-oxa 21:3 (n-6), Z, Z, Z (6,9, 12-Octadecatrienyloxy) acetic acid], for which, in data set [1], the “% INHIBITION OF INDUCED PROLIFERATION AT 20 μM PUFA” value turned out to be 17%. Also, the inhibition at 20 µM with TNFα (setting [2]) stood at 38%.
On to `CCCCC/C=C\C/C=C\C/C=C\C/C=C\CCCCOCC(=O)O` [β-oxa 23:4 (n-6), Z, Z, Z, Z (5,8, 11, 14-Eicosatetraenyloxy) acetic acid], for which the inhibition at 20 µM in the data set on TNFα (setting [2]) is 25%.
Consider `CC/C=C\C/C=C\C/C=C\CCCCCCCCSCC(=O)O` [β-thia 21:3 (n-3), Z,Z,Z,Z-(9,12,15-Octadecatrienylthio)acetic acid], for which, in data set [1], the “% INHIBITION OF INDUCED PROLIFERATION AT 20 μM PUFA” value came out at 28%. Also, in the data set on TNFα (setting [2]), the inhibition at 20 µM was determined as 17%.
In the case of `CCCCC/C=C\C/C=C\C/C=C\CCCCCSCC(=O)O` [β-thia 21:3 (n-6), Z,Z,Z,Z-(6,9, 12-Octadecatrienythio)acetica acid], the inhibition at 20 µM in the data set with TNFα (setting [2]) is 17%.
Regarding `CCCCC/C=C\C/C=C\C/C=C\C/C=C\CCCCSCC(=O)O` [β-thia 23:4 (n-6), Z,Z,Z,Z-(5,8,11,14-Eicosatetraenylthio) acetic acid], the inhibition at 20 µM in the data set with TNFα (setting [2]) was determined as 35%.
With `CC/C=C\C/C=C\C/C=C\C/C=C\C/C=C\C/C=C\CCCSCC(=O)O` [β-thia 25:6 (n-3)], the “% INHIBITION OF INDUCED PROLIFERATION AT 20 μM PUFA” value in data set [1] is given as 97%. The inhibition at 20 µM in the data set with TNFα (setting [2]) is 90%.
Regarding `CCCCC/C=C\C/C=C\C/C=C\CCCCC(=O)N[C@@H](CC(=O)O)C(=O)O` [γ-linolenic acid-aspartic acid], the inhibition at 20 µM in data set [1] (induced by PHA, PUFA at 20 μM) is 15.4%; in the data set with TNFα (setting [3]), 4.7%; with interferon γ, 0%.
Turning to `CCCCC/C=C\C/C=C\C/C=C\CCCCC(=O)NCC(=O)O` [γ-linolenic acid-glycine], the inhibition at 20 µM in data set [1] (induced by PHA, PUFA at 20 μM) worked out at 29%; in the data set on TNFα (setting [3]), 21.5%; with interferon γ, 0%.
Turning to `CC/C=C\C/C=C\C/C=C\CCCCCCCCSCCC(=O)O` [γ-thia 22:3 (n-3), Z,Z,Z,Z-(9,12,15-Octadecatrienylthio)proponionic acid], the inhibition at 20 µM in the data set with TNFα (setting [2]) amounted to 25%.
The same measure, in the same setting: the same measure for `CCCCC/C=C\C/C=C\C/C=C\CCCCCSCCC(=O)O` [γ-thia 22:3 (n-6), Z,Z,Z,Z-(6,9,12-Octadecatrienylthio)propionic acid]: 41%; for `CCCCC/C=C\C/C=C\C/C=C\C/C=C\CCCCSCCC(=O)O` [γ-thia 24:4 (n-6), Z,Z,Z,Z-(5,8,11,14-Eicosatetraenylthio) propionic acid]: 34%.
